From patent publication US12343319B2, “Compositions and methods for treatment of diseases and disorders” (Atai Therapeutics Inc., priority 2023, dated 2025)

Key:
Male WKY rats = experiment: Confirmatory 30 mg/kg sleep, locomotor, body temperature and qEEG study in WKY rats; assay type: in vivo, rat; settings: 30 mg/kg IP
Procedure: The aim of the current study was to confirm the effects of compound 2-2 (30 mg/kg) on sleep-wake behavior and EEG brain oscillatory power in an independent cohort of male Wistar Kyoto rats. The study was carried out similarly to Examples 7 and 9 with differences noted below. Male WKY rats (n=8, 323-352 g at the start of dosing) were housed in groups of 2-3 animals per cage with standard housing conditions.

[1] = tested on: primary cortical rat neurons; experiment: Synaptogenesis assay in primary cortical rat neurons; assay type: cell-based; settings: 1 μM (highest concentration), DIV1-DIV10
Procedure: Pregnant rats for this study were purchased from a commercial breeder. Primary cortical neurons from E17/E18 rat pups were isolated and seeded in 96-well plates. Cells were treated with compound 2-2, FGF (Reference item) or vehicle. After incubation with the respective treatment, cortical neurons were stained for synapsin and tubulin using immunofluorescence.
Stained cells were imaged with the Cytation 5 Multimode reader. From each well, 9 images were taken at 10× magnification. Digital images from cortical neurons were analyzed for the following parameter using a software-supported automatic quantification method: Number of synapsin positive objects. Analysis was performed using Gen5 software. The experiment was run in n=10 technical replicates per condition. Vehicle control and FGF were included on each plate totaling n=20 technical replicates.
Primary cortical neurons were prepared from timed pregnant Spargue Dawley rats at E17/E18. Animals were sacrificed (see section 3.3.1) and embryos were dissected in Calcium and Magnesium free Hanks Balanced Salt Solution (CMF-HBSS) containing 15 mM HEPES and 10 mM NaHCO3, pH 7.2. Embryos were decapitated, skin and skull gently removed and hemispheres were separated. After removing meninges and brain stem, the cortices were isolated, chopped with a sterile razor blade in Chop solution (Hibernate-E without Calcium containing 2% B-27) and digested in 2 mg/mL papain (Worthington) dissolved in Hibernate-E without Calcium for 30 minutes (±5 min) at 30° C. The cortices of the embryos from the two rats were pooled and processed together.
Cortices were triturated for 10-15 times with a fire-polished silanized Pasteur pipette in Hibernate-E without Calcium containing 2% B-27, 0.01% DNaseI, 1 mg/mL BSA, and 1 mg/mL Ovomucoid Inhibitor. Undispersed pieces were allowed to settle by gravity for 3 min and the supernatant was centrifuged for 3 min at 228 g. […]
Cells were counted in a hemacytometer and seeded in nutrition medium on poly-D-lysine pre-coated 96-well plates at a density of 1.5×10^4 cells/well. […]

COc1ccc(OC)c(CCNCc2cc(C)cc(F)c2)c1 [Compound 2-2, 2-(2,5-dimethoxyphenyl)-N-(3-fluoro-5-methylbenzyl)ethan-1-amine]
NREM sleep latency (Male WKY rats): no significant effect | body temperature (Male WKY rats): transiently reduced | locomotion (Male WKY rats): did not affect | synaptogenesis compared to VC (synapsin positive objects normalized to tubulin III area) [1]: did not have any significant effect
